Assays:
[1] = Plasma pharmacokinetics of nivasorexant 100 mg b.i.d. in healthy subjects; conditions: for unbound peak concentration: corrected for molecular weight and f u,p 0.01
[2] = biological target: CYP2C19 (Homo sapiens, UniProt P33261); test: in vitro; format: in vitro ADME
[3] = biological target: T1, CYP3A4 (Homo sapiens, UniProt P08684); test: Cocktail DDI study: PK of midazolam and 1-OH midazolam with/without nivasorexant
[4] = biological target: T2, CYP1A2 (Homo sapiens, UniProt P05177); test: Competitive; format: in vitro ADME
T2 sequence (P05177 1-516): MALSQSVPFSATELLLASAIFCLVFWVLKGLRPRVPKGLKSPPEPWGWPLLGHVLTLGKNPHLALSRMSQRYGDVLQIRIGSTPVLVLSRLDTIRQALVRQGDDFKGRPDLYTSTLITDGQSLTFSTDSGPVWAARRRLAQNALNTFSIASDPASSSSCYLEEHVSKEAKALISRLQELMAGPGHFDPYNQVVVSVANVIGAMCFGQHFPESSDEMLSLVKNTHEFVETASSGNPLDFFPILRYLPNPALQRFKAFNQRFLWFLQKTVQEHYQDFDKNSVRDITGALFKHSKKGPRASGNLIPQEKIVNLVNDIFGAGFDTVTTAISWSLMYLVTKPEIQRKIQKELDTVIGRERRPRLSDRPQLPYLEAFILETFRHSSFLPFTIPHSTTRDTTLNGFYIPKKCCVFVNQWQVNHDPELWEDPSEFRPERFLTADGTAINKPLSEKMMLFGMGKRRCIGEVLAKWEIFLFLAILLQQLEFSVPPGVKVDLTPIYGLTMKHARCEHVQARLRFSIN

[5] = biological target: T1, CYP3A4; conditions: cited from earlier work
[6] = test system: healthy subjects; test: Safety and tolerability in the clinical study
[7] = biological target: T1, CYP3A4; conditions: in man; cited from earlier work
[8] = biological target: CYP2D6 (Homo sapiens, UniProt P10635); test: Time-dependent; format: in vitro ADME; conditions: 30 min pre‐incubation with/without NADPH; dextromethorphan N‐demethylation
CYP2D6, sequence (P10635 whole entry): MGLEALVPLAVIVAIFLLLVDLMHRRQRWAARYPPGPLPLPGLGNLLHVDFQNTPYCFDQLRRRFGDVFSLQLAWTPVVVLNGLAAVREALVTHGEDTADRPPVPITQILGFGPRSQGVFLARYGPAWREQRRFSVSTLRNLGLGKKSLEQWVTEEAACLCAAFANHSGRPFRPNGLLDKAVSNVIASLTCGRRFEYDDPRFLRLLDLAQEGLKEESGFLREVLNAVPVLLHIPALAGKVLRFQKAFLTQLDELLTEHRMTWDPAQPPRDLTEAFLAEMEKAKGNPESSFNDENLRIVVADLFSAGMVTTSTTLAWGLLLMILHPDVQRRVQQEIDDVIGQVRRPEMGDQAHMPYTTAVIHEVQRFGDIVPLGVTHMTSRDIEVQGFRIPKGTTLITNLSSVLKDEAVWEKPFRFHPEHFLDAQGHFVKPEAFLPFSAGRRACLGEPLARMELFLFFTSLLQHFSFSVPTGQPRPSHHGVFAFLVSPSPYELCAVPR

CYP2C19, sequence (P33261 whole entry): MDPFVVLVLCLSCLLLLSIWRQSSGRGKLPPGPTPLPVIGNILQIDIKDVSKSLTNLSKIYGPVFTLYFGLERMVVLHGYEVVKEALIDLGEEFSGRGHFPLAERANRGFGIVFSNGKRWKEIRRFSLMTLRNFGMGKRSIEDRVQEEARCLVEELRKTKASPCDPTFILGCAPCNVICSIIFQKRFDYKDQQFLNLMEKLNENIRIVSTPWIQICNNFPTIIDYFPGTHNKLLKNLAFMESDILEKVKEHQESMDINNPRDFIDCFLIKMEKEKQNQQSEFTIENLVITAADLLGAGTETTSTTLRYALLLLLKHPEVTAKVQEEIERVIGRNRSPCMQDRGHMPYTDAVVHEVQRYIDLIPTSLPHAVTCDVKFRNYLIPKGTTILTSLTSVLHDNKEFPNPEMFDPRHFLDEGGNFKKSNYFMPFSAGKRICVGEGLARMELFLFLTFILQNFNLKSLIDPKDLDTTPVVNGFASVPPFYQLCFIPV
T1 sequence (P08684 whole entry): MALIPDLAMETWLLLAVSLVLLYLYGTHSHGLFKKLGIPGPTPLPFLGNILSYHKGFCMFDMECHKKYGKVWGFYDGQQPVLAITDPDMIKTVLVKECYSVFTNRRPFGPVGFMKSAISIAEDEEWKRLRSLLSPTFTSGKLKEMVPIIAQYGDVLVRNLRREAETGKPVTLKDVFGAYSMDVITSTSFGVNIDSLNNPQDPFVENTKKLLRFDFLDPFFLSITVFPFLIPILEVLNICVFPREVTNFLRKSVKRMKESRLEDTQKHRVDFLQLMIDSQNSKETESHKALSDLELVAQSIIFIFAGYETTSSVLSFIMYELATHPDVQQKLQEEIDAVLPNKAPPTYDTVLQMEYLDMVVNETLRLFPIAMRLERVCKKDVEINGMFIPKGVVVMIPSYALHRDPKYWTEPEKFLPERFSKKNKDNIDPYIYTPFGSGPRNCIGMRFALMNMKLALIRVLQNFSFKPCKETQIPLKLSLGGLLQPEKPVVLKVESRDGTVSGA

SMILES: Cc1ccc(C(=O)N2CCOC[C@H]2Cc2cccc(-n3nccn3)c2)c(-n2nccn2)c1 [nivasorexant]
- time to steady‐state trough concentrations ([1]; 100 mg b.i.d.): 3 to 4 days
- accumulation index (AIX) ([1]; AUCτ Day 15 / AUCτ Day 8, 8 days of 100 mg b.i.d.): 1.8
- unbound peak concentration ([1]; Day 8): 16 nM
- unbound peak concentration ([1]; Day 15): 29 nM
- AUC ([1]; both, human, plasma, oral, AUCτ, Trt D, Day 15, repeated 100 mg b.i.d., geometric mean (95% CI)): 8560 ng·h/mL
- Cmax ([1]; both, human, plasma, oral, C max, Trt D, Day 15, repeated 100 mg b.i.d., steady state, geometric mean (95% CI)): 1250 ng/mL
- t max ([1]; both, human, plasma, oral, t max, Trt D, Day 15, repeated 100 mg b.i.d., median (range)): 2 h
- IC50 shift at 30 min ([2]; human, recombinant enzyme): 67
- K I (inhibition constant of the CYP enzyme inactivation) ([2]; recombinant CYP2C19): 4.2 µM
- k inact (rate of enzyme inactivation) ([2]; recombinant CYP2C19): 0.079 min⁻¹
- CYP3A4 inhibitor classification according to regulatory guidance ([3]; after 1 day of 100 mg b.i.d.): weak (≥1.25‐ to <2‐fold)
- CYP3A4 inhibitor classification according to regulatory guidance ([3]; after 8 days / repeated 100 mg b.i.d., steady state): moderate (≥ 2‐ to <5‐fold)
- IC50 [4]: > 100 µM
- time to steady‐state conditions ([5]; 200 mg b.i.d. nivasorexant): 4 to 5 days
- CYP3A4 inhibitor classification ([5]; after b.i.d. administration of 200 mg for 10 days): moderate (≥ 2‐ to <5‐fold)
- safety and tolerability (in words) ([6]; Day 1 to Day 15, healthy subjects): safe and well tolerated
- somnolence, subjects (%) ([6]; Treatment B: cocktail + initial 100 mg nivasorexant, Day 8): 1 (4.5%) subjects (%)
- somnolence, subjects (%) ([6]; Treatment C: nivasorexant 100 mg b.i.d. alone, Day 9–14): 2 (9.1%) subjects (%)
- somnolence, subjects (%) ([6]; Treatment D: cocktail + nivasorexant at steady state, Day 15): 5 (23.8%) subjects (%)
- extent of microsomal metabolism dependent on CYP3A4 [7]: approximately 90%
- IC50 shift [8]: no effect and none

From PMC10557102 (Pharmacology Research & Perspectives, 2023)
